One test concerns HER2 mutant lung cancers. From the text:
(§1) Patients with stage 4 or recurrent HER2 mutant lung cancers were enrolled in the cohort, as illustrated in the basket trial scheme in FIG. 1. Other cohorts of this basket trial included HER2 amplified lung, bladder and other solid tumors, as illustrated by FIG. 1. HER2 mutations were identified through next generation sequencing (NGS) including exon 20 insYVMA, insGSP, insTGT, single base pair substitutions L755A, L755S, V777L, V659E, S310F or other likely activating mutations. Other inclusion criteria included age (≥18 years old), Karnofsky performance status (≥70%), measurable disease by Response Evaluation Criteria in Solid Tumors (RECIST) v1.1, and adequate left ventricular, bone marrow, and hepatic function.
Physical examination and safety assessments were performed every 3 weeks. Tumor assessments using contrast enhanced computed tomography of the chest, abdomen, and pelvis were performed at baseline, week 6, week 12, and every 12 weeks thereafter until disease progression was observed. Brain imaging was not routinely performed unless clinically indicated. Left ventricular ejection fraction measurements by echocardiography or multi-gated acquisition scan were performed at baseline then every 3 months. […] Secondary objectives included assessment of progression-free survival (PFS) and toxicity according to the National Cancer Institute Common Terminology Criteria for Adverse Events version 4.1 (NCI CTCAE v4.1). The molecular associations between HER2 mutations, HER2 amplification and HER2 protein expression were examined using different molecular diagnostic assays whenever archival tissue was available. NGS assessed for HER2 mutation and amplification, fluorescence in situ hybridization (FISH) assessed for HER2 amplification, and HER2 protein overexpression was assessed by immunohistochemistry (IHC) and quantitative mass spectrometry. FISH was performed using FDA approved probe sets (PathVysion, Abbott Molecular, Chicago, Ill. and HER2 IQFISH pharmDx, Agilent, Santa Clara, Calif.) and positive HER2 amplification was defined as HER2/CEP17 ratio ≥2.0. HER2 protein by IHC was assessed using the 4B5 Ventana antibody (Ventana Medical Systems, Oro Valley Ariz.). Quantitative HER2 protein by selected reaction monitoring mass spectrometry on fixed-formalin paraffin-embedded tissue was performed using methods previously validated in breast cancers, with ≥740 amol/ug as the cutoff for high HER2 expression (see Nuciforo P., et al., Mol. Oncol., 10:138-147 (2016)).
Target accrual was a minimum of 7 patients (stage 1) and maximum of 18 patients (stage 1 and 2) in each cohort. The primary endpoint was best confirmed overall response rate (ORR) per RECIST v1.1. The Simon's optimal two-stage design was employed with a multiple testing adjusted type I error rate for each cohort. For a targeted agent where higher response rates were expected, a true ORR of ≤10% was considered unacceptable (null hypothesis), whereas a true ORR of ≥40% merited further study (alternative hypothesis). In the first stage, 7 patients were accrued; if there were no responses observed at interim analysis of the 7 patients in a particular cohort, the cohort was closed. Otherwise, 11 additional patients were accrued for a total of 18 patients. […] The overall family-wise error rate at the study level was <10%. The exact 95% CI for ORR was calculated using the Clopper-Pearson method. PFS time was estimated by the Kaplan-Meier method. Follow-up time was calculated from the start of treatment to the most recent patient follow-up assessment.

In test [1] the test system is HER2-amplified salivary gland cancers. The following applies: FLIM-FRET positive in 3/3.
From the text: as §1

Turning to ado-trastuzumab emtansine, the “outcome of patients with active untreated brain metastases at enrollment” value in the test on HER2 mutant lung cancers (2 patients, first response assessment) is “both patients had progression of disease systemically and in the central nervous system”. In addition, the “patients with progression of disease as best response” value with HER2 mutant lung cancers (3 of 18 patients) is listed as 17%. Also, the “responders among patients pretreated with prior systemic therapy” value in the test with HER2 mutant lung cancers (6 of 15 pretreated patients) stood at 40%. In addition, the “median PFS for the responders” value in the test on HER2 mutant lung cancers (95% CI 4 months to not reached) worked out at 6 months. The “median PFS for all patients” value in the test on HER2 mutant lung cancers (N=18, 95% CI 3 to 9 months) was found to be 5 months. Besides, the “overall response rate (ORR, all partial and confirmed)” value in the test with HER2 mutant lung cancers (RECIST v1.1, 3.6 mg/kg IV every 21 days, 18 patients, 95% CI 22-69%) is on record as 44%. The “patients who achieved stable disease” value in the test with HER2 mutant lung cancers (in vivo) is given as 39%. The “patients with confirmed radiologic partial response” value in the test with HER2 mutant lung cancers (out of 18 patients with ERBB2-mutant lung cancers) was determined as 8. In the test with HER2 mutant lung cancers (patient with stable disease as best response, -27% tumor shrinkage), the “longest PFS observed / durable disease control” value is listed as at least 11 months. Further, the “median time to response from start of treatment” value in the test with HER2 mutant lung cancers (range 1 to 4 months) was determined as 2 months. Besides, the “median duration of response” value in the test with HER2 mutant lung cancers (range 2 to 9 months) is given as 4 months. For the same substance, the “response among FLIM-FRET positive patients” value in test [1] was “all 3 patients responded”.

Source of the values: patent US20210239702A1, “METHODS FOR PREDICTING RESPONSIVENESS OF LUNG CANCER PATIENTS TO HER2-TARGETING THERAPIES” (MEMORIAL SLOAN KETTERING CANCER CENTER, priority 2018, published 2021).
